Source: ChEMBL document CHEMBL5465560, “Selectivity Literature for EUbOPEN Chemogenomic Library” (2024)

Key:
Activated CDC42 kinase 1 = Activated CDC42 kinase 1 (Homo sapiens, UniProt Q07912); assay: Selectivity interaction (KinomeScan (DiscoverX)) EUB0001079a TNK2; conditions: at 1 µM
[1] = molecular target: T1, Dual specificity mitogen-activated protein kinase kinase 6 (Homo sapiens) (UniProt P52564); assay: Selectivity interaction (ActivX KiNativ screen (kinase selectivity in THP-1 cell lysates)) EUB0000639a MAP2K6; assay type: subcellular; conditions: lysate
T1 sequence (whole entry): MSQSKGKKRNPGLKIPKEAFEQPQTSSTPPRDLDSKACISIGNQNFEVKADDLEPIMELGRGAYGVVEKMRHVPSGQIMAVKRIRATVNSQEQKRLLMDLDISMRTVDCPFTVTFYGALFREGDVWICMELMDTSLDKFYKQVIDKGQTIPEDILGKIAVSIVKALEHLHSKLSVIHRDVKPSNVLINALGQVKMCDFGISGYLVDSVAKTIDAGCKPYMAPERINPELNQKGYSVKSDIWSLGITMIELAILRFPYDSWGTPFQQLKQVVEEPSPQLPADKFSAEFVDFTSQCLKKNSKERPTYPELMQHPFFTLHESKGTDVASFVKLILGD

[2] = molecular target: Cyclin-dependent kinase 14 (Homo sapiens) (UniProt O94921); assay: Selectivity interaction (ActivX KiNativ screen (kinase selectivity in THP-1 cell lysates)) EUB0000639a CDK14; assay type: subcellular; conditions: lysate, at 0.04 µM
[3] = molecular target: Calcium/calmodulin-dependent protein kinase type 1G (Homo sapiens) (UniProt Q96NX5); assay: Selectivity interaction (KinomeScan (DiscoverX)) EUB0000618a CAMK1G; conditions: at 10 µM
[4] = molecular target: Phosphatidylinositol 4,5-bisphosphate 3-kinase catalytic subunit gamma isoform (Homo sapiens) (UniProt P48736); assay: Selectivity interaction (KinomeScan (DiscoverX)) EUB0000618a PIK3CG; conditions: at 10 µM
[5] = molecular target: Casein kinase I isoform gamma-2 (Homo sapiens) (UniProt P78368); assay: Selectivity interaction (KinomeScan (DiscoverX)) EUB0001619a CSNK1G2; conditions: at 1 µM
[6] = molecular target: T2, Ephrin type-A receptor 3 (Homo sapiens) (UniProt P29320); assay: Selectivity interaction (KinomeScan (DiscoverX)) EUB0001619a EPHA3; conditions: at 1 µM
T2 sequence (whole entry): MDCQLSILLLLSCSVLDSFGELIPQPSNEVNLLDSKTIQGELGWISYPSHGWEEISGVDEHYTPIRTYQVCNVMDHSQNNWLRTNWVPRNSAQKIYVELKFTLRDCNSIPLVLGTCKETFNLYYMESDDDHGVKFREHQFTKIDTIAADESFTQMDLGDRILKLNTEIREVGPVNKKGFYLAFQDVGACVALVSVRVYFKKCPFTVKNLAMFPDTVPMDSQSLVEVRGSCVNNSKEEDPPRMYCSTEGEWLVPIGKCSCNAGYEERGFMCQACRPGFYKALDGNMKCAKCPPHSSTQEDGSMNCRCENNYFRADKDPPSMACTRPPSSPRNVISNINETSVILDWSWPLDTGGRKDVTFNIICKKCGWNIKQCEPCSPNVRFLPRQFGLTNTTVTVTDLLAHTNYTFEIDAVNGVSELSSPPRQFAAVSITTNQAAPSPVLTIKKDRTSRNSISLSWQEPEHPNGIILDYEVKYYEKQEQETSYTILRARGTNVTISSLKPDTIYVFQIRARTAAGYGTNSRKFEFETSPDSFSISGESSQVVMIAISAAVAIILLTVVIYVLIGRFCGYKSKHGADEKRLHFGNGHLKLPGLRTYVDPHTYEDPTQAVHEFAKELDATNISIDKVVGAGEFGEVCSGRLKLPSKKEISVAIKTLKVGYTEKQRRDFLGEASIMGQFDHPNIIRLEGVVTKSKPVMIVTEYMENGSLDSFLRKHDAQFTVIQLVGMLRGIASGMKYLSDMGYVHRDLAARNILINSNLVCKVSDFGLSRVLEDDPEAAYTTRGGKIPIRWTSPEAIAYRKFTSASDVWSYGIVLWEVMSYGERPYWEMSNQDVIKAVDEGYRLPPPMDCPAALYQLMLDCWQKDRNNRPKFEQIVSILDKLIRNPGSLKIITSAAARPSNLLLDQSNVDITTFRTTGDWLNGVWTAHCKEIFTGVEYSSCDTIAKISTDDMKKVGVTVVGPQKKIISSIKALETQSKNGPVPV

[7] = molecular target: ALK tyrosine kinase receptor (Homo sapiens, UniProt Q9UM73); assay: Selectivity interaction (Upstate Kinase Profiler service (Millipore)) EUB0000056c ALK; conditions: at 1 µM
[8] = molecular target: High affinity nerve growth factor receptor (Homo sapiens, UniProt P04629); assay: Selectivity interaction (KinomeScan (DiscoverX)) EUB0000655a NTRK1; conditions: at 10 µM
SRSF protein kinase 1 = SRSF protein kinase 1 (Homo sapiens, UniProt Q96SB4); assay: Selectivity interaction (SelectScreen profiling (Invitrogen)) EUB0000607a SRPK1; conditions: at 2 µM
[9] = molecular target: T3, Rhodopsin kinase GRK7 (Homo sapiens) (UniProt Q8WTQ7); assay: Selectivity interaction (ProQinase) EUB0000171b GRK7
T3 sequence (whole entry): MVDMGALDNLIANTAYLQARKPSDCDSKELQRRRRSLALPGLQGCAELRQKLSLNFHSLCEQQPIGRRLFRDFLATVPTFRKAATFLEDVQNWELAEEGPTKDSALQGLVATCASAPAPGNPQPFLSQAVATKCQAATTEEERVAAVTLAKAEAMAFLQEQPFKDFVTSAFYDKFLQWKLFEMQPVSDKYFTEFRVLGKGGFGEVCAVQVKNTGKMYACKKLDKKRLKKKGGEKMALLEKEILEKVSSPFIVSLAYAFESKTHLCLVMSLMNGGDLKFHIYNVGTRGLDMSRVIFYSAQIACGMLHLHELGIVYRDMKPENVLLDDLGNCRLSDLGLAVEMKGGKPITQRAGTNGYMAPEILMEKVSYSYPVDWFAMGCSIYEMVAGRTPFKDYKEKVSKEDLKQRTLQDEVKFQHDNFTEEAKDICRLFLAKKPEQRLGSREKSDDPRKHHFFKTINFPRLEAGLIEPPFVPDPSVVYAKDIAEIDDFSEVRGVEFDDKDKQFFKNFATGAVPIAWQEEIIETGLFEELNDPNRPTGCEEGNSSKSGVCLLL

[10] = molecular target: Mitogen-activated protein kinase 8 (Homo sapiens, UniProt P45983); assay: Selectivity interaction (ProQinase) EUB0000171b MAPK8
Sequence of Mitogen-activated protein kinase 8 (P45983 whole entry): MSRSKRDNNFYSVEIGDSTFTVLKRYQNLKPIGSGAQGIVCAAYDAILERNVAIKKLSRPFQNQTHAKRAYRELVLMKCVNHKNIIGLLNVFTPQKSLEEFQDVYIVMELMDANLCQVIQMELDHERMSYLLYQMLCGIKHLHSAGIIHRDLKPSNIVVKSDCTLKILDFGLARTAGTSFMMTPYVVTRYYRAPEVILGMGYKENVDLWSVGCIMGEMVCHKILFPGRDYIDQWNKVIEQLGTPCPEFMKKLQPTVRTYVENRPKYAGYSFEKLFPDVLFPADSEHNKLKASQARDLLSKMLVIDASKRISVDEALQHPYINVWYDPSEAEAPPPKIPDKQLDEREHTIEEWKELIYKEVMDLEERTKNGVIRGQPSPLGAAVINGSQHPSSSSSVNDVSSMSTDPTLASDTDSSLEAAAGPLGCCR

Sequence of Phosphatidylinositol 4,5-bisphosphate 3-kinase catalytic subunit gamma isoform (Homo sapiens) (P48736 whole entry, looked up, canonical isoform): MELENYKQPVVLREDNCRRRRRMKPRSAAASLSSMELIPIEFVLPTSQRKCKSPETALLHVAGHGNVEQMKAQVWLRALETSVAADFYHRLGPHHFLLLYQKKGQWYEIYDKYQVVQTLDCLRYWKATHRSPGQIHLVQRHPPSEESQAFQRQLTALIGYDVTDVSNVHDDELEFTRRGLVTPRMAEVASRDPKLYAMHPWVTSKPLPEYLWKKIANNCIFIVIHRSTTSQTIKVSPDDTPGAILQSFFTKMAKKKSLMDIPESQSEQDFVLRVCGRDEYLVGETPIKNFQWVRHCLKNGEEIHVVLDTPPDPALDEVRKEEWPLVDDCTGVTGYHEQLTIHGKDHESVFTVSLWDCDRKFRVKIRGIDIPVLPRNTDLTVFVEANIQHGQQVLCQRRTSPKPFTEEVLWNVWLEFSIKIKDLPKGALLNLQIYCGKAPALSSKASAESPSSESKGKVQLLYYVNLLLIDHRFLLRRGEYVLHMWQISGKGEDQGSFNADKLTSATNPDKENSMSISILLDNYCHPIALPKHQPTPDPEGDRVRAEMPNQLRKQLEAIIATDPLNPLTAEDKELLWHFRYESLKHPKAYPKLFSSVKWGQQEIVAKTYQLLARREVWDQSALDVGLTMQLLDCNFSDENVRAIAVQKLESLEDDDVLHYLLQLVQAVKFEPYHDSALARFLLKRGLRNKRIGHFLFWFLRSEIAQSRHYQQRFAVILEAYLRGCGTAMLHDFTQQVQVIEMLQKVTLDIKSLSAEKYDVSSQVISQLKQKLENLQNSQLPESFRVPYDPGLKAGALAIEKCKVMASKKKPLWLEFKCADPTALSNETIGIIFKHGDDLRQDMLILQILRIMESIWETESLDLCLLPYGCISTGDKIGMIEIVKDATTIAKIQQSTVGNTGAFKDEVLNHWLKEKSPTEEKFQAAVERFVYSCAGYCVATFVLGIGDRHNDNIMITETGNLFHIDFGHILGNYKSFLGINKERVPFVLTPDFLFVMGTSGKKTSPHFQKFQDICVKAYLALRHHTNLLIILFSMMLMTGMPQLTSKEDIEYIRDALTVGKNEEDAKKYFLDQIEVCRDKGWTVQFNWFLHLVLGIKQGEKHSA
Sequence of Cyclin-dependent kinase 14 (Homo sapiens) (O94921 whole entry): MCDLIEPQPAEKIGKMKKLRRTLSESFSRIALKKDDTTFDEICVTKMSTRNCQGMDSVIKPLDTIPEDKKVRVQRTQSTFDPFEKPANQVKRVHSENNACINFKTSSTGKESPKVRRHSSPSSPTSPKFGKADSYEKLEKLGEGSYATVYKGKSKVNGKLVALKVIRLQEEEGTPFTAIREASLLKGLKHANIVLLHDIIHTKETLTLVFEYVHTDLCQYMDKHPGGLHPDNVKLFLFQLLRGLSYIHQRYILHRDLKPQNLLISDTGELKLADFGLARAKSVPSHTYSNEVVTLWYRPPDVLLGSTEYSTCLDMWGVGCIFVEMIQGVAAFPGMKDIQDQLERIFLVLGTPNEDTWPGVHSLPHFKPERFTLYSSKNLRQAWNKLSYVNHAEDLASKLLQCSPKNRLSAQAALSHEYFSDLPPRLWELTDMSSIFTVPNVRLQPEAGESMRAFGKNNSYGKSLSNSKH
Sequence of High affinity nerve growth factor receptor (P04629 33-796 limits assumed): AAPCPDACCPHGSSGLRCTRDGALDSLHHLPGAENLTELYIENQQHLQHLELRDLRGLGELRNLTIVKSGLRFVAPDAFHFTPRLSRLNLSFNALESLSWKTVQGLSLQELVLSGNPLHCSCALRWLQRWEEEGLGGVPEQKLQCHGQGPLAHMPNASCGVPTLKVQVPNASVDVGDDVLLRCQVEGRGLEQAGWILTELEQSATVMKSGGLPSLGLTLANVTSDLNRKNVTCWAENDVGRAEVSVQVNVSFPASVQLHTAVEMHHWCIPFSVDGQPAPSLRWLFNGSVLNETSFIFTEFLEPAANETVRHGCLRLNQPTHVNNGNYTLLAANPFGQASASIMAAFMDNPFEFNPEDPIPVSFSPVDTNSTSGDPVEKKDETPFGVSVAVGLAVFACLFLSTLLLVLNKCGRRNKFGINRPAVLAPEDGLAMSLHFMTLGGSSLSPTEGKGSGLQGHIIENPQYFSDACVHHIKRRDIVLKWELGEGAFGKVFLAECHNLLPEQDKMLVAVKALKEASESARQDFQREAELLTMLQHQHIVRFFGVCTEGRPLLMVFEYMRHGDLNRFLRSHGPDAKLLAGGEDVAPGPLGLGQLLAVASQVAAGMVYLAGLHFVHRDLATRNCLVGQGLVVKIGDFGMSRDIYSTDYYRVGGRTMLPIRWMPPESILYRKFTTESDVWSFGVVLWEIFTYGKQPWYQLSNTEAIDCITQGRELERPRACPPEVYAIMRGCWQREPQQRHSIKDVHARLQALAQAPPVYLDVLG
Sequence of Activated CDC42 kinase 1 (Q07912 whole entry, looked up): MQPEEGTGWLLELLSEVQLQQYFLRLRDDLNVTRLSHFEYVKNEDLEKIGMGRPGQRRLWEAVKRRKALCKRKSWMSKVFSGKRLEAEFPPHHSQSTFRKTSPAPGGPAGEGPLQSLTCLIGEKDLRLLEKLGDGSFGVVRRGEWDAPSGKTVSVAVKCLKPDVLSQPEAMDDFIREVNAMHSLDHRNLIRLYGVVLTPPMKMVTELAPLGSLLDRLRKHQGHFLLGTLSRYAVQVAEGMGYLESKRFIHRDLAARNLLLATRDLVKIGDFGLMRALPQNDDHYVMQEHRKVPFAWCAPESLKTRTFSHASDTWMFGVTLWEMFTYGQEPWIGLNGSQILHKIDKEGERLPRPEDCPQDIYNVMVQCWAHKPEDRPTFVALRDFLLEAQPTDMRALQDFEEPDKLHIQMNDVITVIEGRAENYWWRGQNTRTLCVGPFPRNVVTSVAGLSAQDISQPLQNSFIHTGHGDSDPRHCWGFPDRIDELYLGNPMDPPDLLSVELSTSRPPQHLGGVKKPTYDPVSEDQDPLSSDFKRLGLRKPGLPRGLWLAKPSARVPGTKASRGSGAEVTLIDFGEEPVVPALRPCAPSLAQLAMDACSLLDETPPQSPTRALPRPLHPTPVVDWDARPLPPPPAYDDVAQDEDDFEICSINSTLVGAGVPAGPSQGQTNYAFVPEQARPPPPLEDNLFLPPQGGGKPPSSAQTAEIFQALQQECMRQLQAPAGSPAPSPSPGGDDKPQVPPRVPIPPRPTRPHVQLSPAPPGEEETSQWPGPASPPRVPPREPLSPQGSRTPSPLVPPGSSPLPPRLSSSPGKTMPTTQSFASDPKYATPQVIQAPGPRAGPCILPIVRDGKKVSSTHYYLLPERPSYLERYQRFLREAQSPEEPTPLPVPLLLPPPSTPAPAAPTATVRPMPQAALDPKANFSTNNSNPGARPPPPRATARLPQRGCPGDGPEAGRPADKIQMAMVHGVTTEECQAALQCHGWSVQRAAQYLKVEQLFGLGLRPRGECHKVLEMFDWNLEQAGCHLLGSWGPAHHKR
Sequence of SRSF protein kinase 1 (Q96SB4 whole entry): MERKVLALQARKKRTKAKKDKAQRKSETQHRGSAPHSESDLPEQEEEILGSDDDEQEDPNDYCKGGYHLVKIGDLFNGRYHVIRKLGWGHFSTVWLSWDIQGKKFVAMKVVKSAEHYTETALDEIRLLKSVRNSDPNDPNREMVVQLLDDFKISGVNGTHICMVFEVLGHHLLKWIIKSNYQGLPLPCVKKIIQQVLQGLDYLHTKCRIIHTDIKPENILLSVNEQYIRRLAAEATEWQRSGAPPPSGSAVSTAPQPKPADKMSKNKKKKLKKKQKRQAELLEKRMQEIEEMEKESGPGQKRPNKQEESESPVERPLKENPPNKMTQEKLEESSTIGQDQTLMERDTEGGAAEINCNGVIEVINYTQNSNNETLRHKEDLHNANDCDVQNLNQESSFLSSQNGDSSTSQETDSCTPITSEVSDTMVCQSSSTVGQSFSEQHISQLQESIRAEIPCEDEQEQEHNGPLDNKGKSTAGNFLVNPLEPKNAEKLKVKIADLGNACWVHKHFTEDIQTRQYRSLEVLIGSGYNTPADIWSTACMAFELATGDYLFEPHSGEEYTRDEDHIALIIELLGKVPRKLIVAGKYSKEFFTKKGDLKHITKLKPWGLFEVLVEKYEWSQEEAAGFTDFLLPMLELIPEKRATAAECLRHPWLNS
Sequence of Calcium/calmodulin-dependent protein kinase type 1G (Homo sapiens) (Q96NX5 whole entry, canonical isoform): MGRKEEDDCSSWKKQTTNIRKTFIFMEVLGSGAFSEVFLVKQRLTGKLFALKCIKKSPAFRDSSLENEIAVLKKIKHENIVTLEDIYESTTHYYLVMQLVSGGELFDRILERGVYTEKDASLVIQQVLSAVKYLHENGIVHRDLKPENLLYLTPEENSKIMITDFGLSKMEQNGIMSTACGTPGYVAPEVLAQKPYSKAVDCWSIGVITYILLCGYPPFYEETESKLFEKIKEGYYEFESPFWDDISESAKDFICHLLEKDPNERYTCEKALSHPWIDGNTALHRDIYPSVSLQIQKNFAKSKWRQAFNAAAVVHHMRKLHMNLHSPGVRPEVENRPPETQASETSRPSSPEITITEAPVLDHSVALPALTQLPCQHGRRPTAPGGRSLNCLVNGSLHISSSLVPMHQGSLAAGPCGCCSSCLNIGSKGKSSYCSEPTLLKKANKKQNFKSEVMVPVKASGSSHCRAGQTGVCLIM

## Nc1cnc(N2CCc3cc(S(=O)(=O)Nc4c(F)cc(Cl)cc4F)cc(N4CCCC4=O)c32)nc1 [TP-020n]
Activated CDC42 kinase 1
  % of control: 91%

## CC[C@@H]1[C@H](F)C(=O)N[C@@H]1COc1nccc2cc(C(N)=O)c(OC)cc12 [ZIMLOVISERTIB]
[1]; at 0.01 µM
  % of inhibition: 10.3%
[1]; at 0.04 µM
  % of inhibition: -4.9%
[1]; at 0.2 µM
  % of inhibition: -20.6%
[1]; at 1 µM
  % of inhibition: 17.5%
[1]; at 5 µM
  % of inhibition: 62.3%
[2]
  % of inhibition: 5.5%

## O[C@H]1CC[C@H](Nc2ncc3nc(Nc4c(F)cc(F)cc4F)n([C@H]4CCOC4)c3n2)CC1
[3]
  % of control: 100%
[4]
  % of control: 100%

## N#Cc1cccc(-c2c[nH]c3ncnc(N4CCOCC4)c23)c1
[5]
  % of control: 89%
[6]
  % of control: 66%

## Cc1ccc(-c2ccc3c(ccc4sc5c(c43)NC[C@@H](C)NC5=O)n2)cn1
[7]
  % of inhibition: 43%

## CN(C)CCOc1ccc(-c2nc(-c3ccncc3)c(-c3ccc4c(c3)CC/C4=N\O)[nH]2)cc1
[8]
  % of control: 90%

## CNC(=O)Nc1ccc(-c2nc(N3CC4CCC(C3)O4)c3cnn(C4CCC5(CC4)OCCO5)c3n2)cc1
SRSF protein kinase 1
  % of inhibition: 2%

## C=CC(=O)Nc1cccc(C(=O)Nc2ccc(Nc3cc(-c4[nH]c(SC)nc4C)ccn3)cc2)c1
[9]; at 1 µM
  % of control: 100%
[9]; at 5 µM
  % of control: 99%
[10]; at 1 µM
  % of control: 5%
[10]; at 5 µM
  % of control: 1%
